What was measured:
NIH-3T3 cells = test: CAT transient transfection; type: cell-based, mouse; settings: for DNA transfection (in words): NIH-3T3; for CAT ACTIVITY: 2 μg pSV2CAT, 6 h OPTI MEM serum-free
Description: (§1) A one-to-one mixture (by weight) of the desired lipid and dioleylphosphatidyl ethanolamine was prepared in CHCl3. The CHCl3 was removed on the rotary evaporator to obtain a thin film of lipid mixture. The mixture was hydrated with enough water to obtain approximately 1.25 mg of lipid per ml of solution. The solution was passed through a microfluidizer twice and diluted to 1 mg/ml. The liposome formulation was then filtered through a 0.2 μ filter. Compound 8 was also formulated without DOPE either by sonication at 1 mg/ml in water or by dissolving a dried lipid film with ethanol and then adding water to give a final concentration of 2.5 mg/ml. Ethanol was 10% of that volume. In some instances, this was further diluted with water to 1 mg/ml, 4% ethanol.
(§2) Baby hamster kidney (BHK-21) , COS-7, HeLa-S3 cells, and normal human fibroblasts isolated from newborn foreskin dermis were grown in Dulbecco's-modified Eagle's medium (DMEM) containing 10% fetal bovine serum (FBS), 2 mM L-glutamine (gln), 0.1 mM MEM nonessential amino acids (NEAA), 100 U/ml penicillin, and 100 μg/ml streptomycin. NIH-3T3 cells were grown in DMEM containing 10% calf serum (CS), 2 mMgln, 0.1 mM NEAA 100 U/ml penicillin, and 100 μg/ml streptomycin. PC12 cells were grown in DMEMcontaining 10% horse serum, 5% FBS, 2 mM gln, 0 1 mMNEAA, 100 U/ml penicillin and 100 μ/ml streptomycin. Jurkat cells (human lymphoid cell line) were grown in RPMI-1640 supplemented with 10% FBS, 2mML-glutamine, 100 U/ml penicillin, and 100 μg/ml streptomycin. Human keratinocytes were isolated from newborn foreskin epidermis and cultured in Keratinocyte Growth Medium (Clonetics, San Diego, Ca.). All cell lines were maintained in a humidified incubator with a 5% CO2 atmosphere at 37° C.
(§3) pSV2CAT (5.0 Kb) was described previously (Gorman, C. M. et al. (1982) Mol. Cell. Biol. 2:1044). pCMVCAT (5.0 Kb) was also described previously (Foecking M. K. and Hofstetter, H. (1986) Gene 45:101). Plasmid DNA was purified by isopycnic centrifugation in CsCl/EtBr gradients after recovery by alkaline lysis (Maniatis, T. et al. (1982) in Molecular Cloning: A Laboratory Manual, Cold Spring Harbor Laboratory, Cold Spring Harbor, N.Y., pp. 90-91).
(§4) For transient transfection of pSV2CAT DNA or pCMVCAT DNA, cells were plated in 6-well tissue culture dishes (35 mm wells) and incubated overnight to approximately 60% confluency. To transfect cells in one well, 1-2 μg of pSV2CAT DNA or pCMVCAT DNA was diluted in 100 μl Opti-MEM I. Cationic lipids were diluted separately in another 100 μl aliquot of Opti-MEM I. The two solutions were then mixed in a polystyrene tube, incubated for 10-15 min at room temperature to allow the formation of a DNA-liposome complex, and diluted to one ml by adding 0.8 ml Opti-MEM I or DMEM containing 5% fetal bovine serum (FBS), 2 mMgln, 0.1 mMNEAA, and lacking antibiotics. The cells were washed once with Opti-MEM I or serum-free DMEM, and the DNA-liposome complex was added directly to the cells. After a six hr incubation at 37° C., the transfection complexes were removed and two ml of DMEM containing 10% FBS, 2 mMgln, 0.2 mMNEAA, 100 U/ml penicillin, and 100 μg/ml streptomycin, was added to each well. Note: human keratinocytes were cultured and transfected in Keratinocyte Growth Medium. Cells were incubated for an additional 48 hrs and lysed in situ by freeze-thawing once or twice in 300 μl 0.1M Tris-HC1, pH 7.8-8.0 containing 0 1% Triton X-100. Cell lysates were assayed for CAT activity.
(§5) Cell lysates were assayed for CAT activity as described by Neumann et al. (1987) BioTechniques 5:444 using [^14 C]-butyryl coenzyme A (New England Nuclear, Boston, Mass.). The enzyme reactions were incubated for 2 hrs at 37° C., overlayed with 3.0 ml Econofluor (New England Nuclear) and then incubated for an additional 2 hrs to allow diffusion of the acetylated chloramphenicol into the scintillation fluid. CAT activity was determined by measuring radioactivity in a liquid scintillation counter. […]

[1] = % protein (toxicity estimate, Bradford) after transfection; type: cell-based, mouse; settings: mouse, nih-3t3 cells; 16 μg lipid; 2 μg pSV2CAT; 6 h OPTI MEM serum-free
Description: as §1
(§6) Baby hamster kidney (BHK-21) , COS-7, HeLa-S3 cells, and normal human fibroblasts isolated from newborn foreskin dermis were grown in Dulbecco's-modified Eagle's medium (DMEM) containing 10% fetal bovine serum (FBS), 2 mM L-glutamine (gln), 0.1 mM MEM nonessential amino acids (NEAA), 100 U/ml penicillin, and 100 μg/ml streptomycin. […]
(§7) The "% protein" column indicates the relative amount of protein in the sample tested for CAT activity and therefore provides a way to estimate toxicity of the compounds being tested. […] Protein was measured using a commercially available Bradford protein assay (BioRad Laboratories, Richmond, Ca.). […]

HeLa-S3 cells = test: CAT transient transfection; type: cell-based; settings: for CAT ACTIVITY: 2 μg pSV2CAT, 6 h
Description: as §1, §2, §3, §4, §5

[2] = tested on: normal human keratinocytes; test: CAT transient transfection; type: cell-based; settings: for CAT ACTIVITY: 2 μg pSV2CAT, 6 h, 50 μl of 300 μl assayed; for DNA transfection (in words): keratinocytes
Description: as §1, §2, §3, §4, §5

[3] = % protein (toxicity estimate, Bradford) after transfection; type: cell-based, human; settings: human, keratinocytes, 2 μg pSV2CAT, 6 h
Description: as §1
as §2, with “C. […]” for “C.”
as §7

Jurkat cells = test: CAT transient transfection; type: cell-based, human; settings: pSV2CAT, 6 h OPTIMEM
Description: as §1, §2, §3
(§8) For transient nuclear expression of pSV2CAT or pCMVCAT in Jurkat cells, cells were washed with Opti-MEM I or serum-free RPMI 1640 containing 2 mM gln and plated in six-well plates at a density of 3×10^6 cells per well in 0.8 ml Opti-MEM I or RPMI 1640. For each transfection, 5 μg pSV2CAT DNA or 2 μg pCMVCAT DNA was diluted in 100 μl Opti-MEM I. Lipids were diluted separately in another 100 μl aliquot of Opti-MEMI. The two solutions were then mixed in a polystyrene tube and incubated for 10-15 min at room temperature. The DNA-liposome complex was added to the cell suspensions and incubated 6 hours at 37° C., after which 4 ml growth medium were added per well (RPMI-1640; 10% FBS). Phorbol myristate acetate (Sigma Chemical Co., St. Louis, Mo.) and phytohemagglutinin (Sigma) were also added to a final concentration of 50 ng/ml and 1 μg/ml, respectively, to activate the cells. Cells were harvested at approximately 48 hours post-transfection by centrifugation. Cell lysates were prepared by resuspending cell pellets at 0° C. in 0.1 M Tris-HC1 pH 8.0 containing 0.1% Triton X-100 and freeze-thawing once. Cell lysates were cleared by centrifugation and assayed for CAT activity.
as §5

[4] = % protein (toxicity estimate, Bradford) after transfection; type: cell-based, human; settings: human, jurkat cells, pSV2CAT, 6 h OPTIMEM
Description: as §1, §2, §8
The "% protein" column indicates the relative amount of protein in the sample tested for CAT activity and therefore provides a way to estimate toxicity of the compounds being tested. The "CAT Activity" column indicates the relative transfection effectiveness of the lipid formulation in the various cell lines. The control sample was a cell culture grown under similar conditions as those that were transfected, but with no DNA or cationic lipid added. Protein was measured using a commercially available Bradford protein assay (BioRad Laboratories, Richmond, Ca.).
Jurkat cells (3 × 10^6 cells) were transfected in OPTIMEM with
μg of pSV2CAT DNA for 6 hours.
DNA-lipid complexes were made in OPTIMEM. Jurkat cells (3 × 10^
cells) were transfected in RPMI1640 with 2 μg of pCMVCAT DNA for 6

[5] = as above; type: cell-based; settings: human, hela-s3 cells, 2 μg pSV2CAT
Description: as §1, §6, §7

some cell lines [6] = settings: cited from earlier work; for transfection efficiency relative to DOTMA: some cell lines; for transfection / delivery of nucleic acids: lipid aggregates or liposomes
some cell lines [7] = settings: cited from earlier work

Structure (SMILES): CCCCCCCC/C=C\CCCCCCCCOCC(C[N+](C)(C)CCN)OCCCCCCCC/C=C\CCCCCCCC (stereo not drawn) [Compound 2, 1-Propanaminium, N-(2-amino)ethyl-N,N-dimethyl-2,3-bis(9-octadecenyloxy)-bromide]
- DNA transfection (in words) (NIH-3T3 cells): good activity

Structure (SMILES): CCCCCCCC/C=C\CCCCCCCCOCC(C[N+](C)(C)CCBr)OCCCCCCCC/C=C\CCCCCCCC (stereo not drawn) [Compound 3, 1-Propanaminium, N-[2-(2-bromo)ethyl]-N,N-dimethyl-2,3-bis(9-octadecenyloxy)-,bromide]
- CAT ACTIVITY (NIH-3T3 cells; 16 μg lipid): 6,074 CPM
- DNA transfection (in words) (NIH-3T3 cells): good activity
- viability at 6 h [1]: 35%
- CAT ACTIVITY (HeLa-S3 cells; 6 μg lipid, DMEM, 5% FBS): 78,798 CPM
- CAT ACTIVITY (HeLa-S3 cells; 12 μg lipid, OPTIMEM I, 0% FBS): 29,400 CPM
- DNA transfection (in words) (HeLa-S3 cells; HeLa-S3, presence or absence of serum): good activity
- CAT ACTIVITY ([2]; 10 μg lipid): 10,598 CPM
- viability at 6 h ([3]; 10 μg lipid): 42%
- CAT ACTIVITY (Jurkat cells; 30 μg lipid): 3008 CPM/150 μl
- viability at 6 h ([4]; 30 μg lipid): 97%
- viability at 6 h ([5]; 6 μg lipid, DMEM, 5% FBS): 54%
- viability at 6 h ([5]; 12 μg lipid, OPTIMEM I, 0% FBS): 43%

Structure (SMILES): CCCCCCCC/C=C\CCCCCCCCOCC(C[N+](C)(C)CCNCCCN)OCCCCCCCC/C=C\CCCCCCCC (stereo not drawn) [Compound 4, 1-Propanaminium, N-[2-[(3-aminopropyl)amino]ethyl]-N,N-dimethyl-2,3-bis(9-octadecenyloxy)-, bromide]
- CAT ACTIVITY (NIH-3T3 cells; 24 μg lipid): 3,114 CPM
- CAT ACTIVITY ([2]; 40 μg lipid): 20,038 CPM
- DNA transfection (in words) [2]: effective
- viability at 6 h ([3]; 40 μg lipid): 41%
- CAT ACTIVITY (Jurkat cells; 20 μg lipid): 2252 CPM/150 μl
- CAT ACTIVITY (Jurkat cells; 30 μg lipid): 820 CPM/150 μl
- viability at 6 h ([4]; 20 μg lipid): 93%
- viability at 6 h ([4]; 30 μg lipid): 100%

Structure (SMILES): CCCCCCCC/C=C\CCCCCCCCOCC(C[N+](C)(C)CCNCCCNCCCCNCCCN)OCCCCCCCC/C=C\CCCCCCCC (stereo not drawn) [Compound 5, 1-Propanaminium,N-{2-[[3-[[4-[(3-aminopropyl)amino]butyl]-amino]propyl]amino]ethyl}-n,n-dimethyl-2,3-bis-(9-octadecenyloxy)-, bromide]
- DNA transfection (in words) [2]: effective
- CAT ACTIVITY (Jurkat cells; 20 μg lipid): 1170 CPM/150 μl
- viability at 6 h ([4]; 20 μg lipid): 100%

Structure (SMILES): CC(C)CCC[C@@H](C)[C@H]1CC[C@H]2[C@@H]3CC=C4C[C@@H](OC(=O)NCCN(C)C)CC[C@]4(C)[C@H]3CC[C@]12C [DC-Chol]
- transfection efficiency relative to DOTMA (some cell lines [6]): more efficient transfection
- toxicity relative to DOTMA (some cell lines [7]): lower toxicity

Structure (SMILES): CCCCCCCCCCCCCCCCCCN(CCCCCCCCCCCCCCCCCC)C(=O)CNC(=O)C(CCCNCCCN)NCCCN (stereo not drawn) [DOGS, 5-carboxyspermylglycine dioctadecylamide]
- transfection / delivery of nucleic acids (some cell lines [6]): efficient transfection
- transfection efficiency relative to DOTMA (some cell lines [6]): more efficient
- toxicity relative to DOTMA (some cell lines [7]): less toxic

Structure (SMILES): CCCCCCCC/C=C\CCCCCCCCOCC(C[N+](C)(C)C)OCCCCCCCC/C=C\CCCCCCCC (stereo not drawn) [DOTMA]
- transfection / delivery of nucleic acids (some cell lines [6]): efficient delivery of nucleic acids to some types of cells

Structure (SMILES): CCCCCCCCCCCCCCCC(=O)OCC(COP(=O)(O)OCCNC(=O)C(CCCNCCCN)NCCCN)OC(=O)CCCCCCCCCCCCCCC (stereo not drawn) [DPPES, dipalmitoylphosphatidylethanolamine 5-carboxyspermylamide]
- transfection / delivery of nucleic acids (some cell lines [6]): efficient transfection
- transfection efficiency relative to DOTMA (some cell lines [6]): more efficient
- toxicity relative to DOTMA (some cell lines [7]): less toxic

Source: patent US5334761A, “Cationic lipids” (Life Technologies, Inc., priority 1992, dated 1994)
